One experiment deals with HL-60. The experiment can be described thus: Cell Health Index (toxicity pseudo-probability over dose series) (index 0-1); higher = more cytotoxic / cell stress.
The subject of a further experiment is Danio rerio embryo. The experiment can be described thus: BMC10 any morphological effect or mortality at 120 hpf; higher = less toxic. The procedure:
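ZBEscreen: dechorionated Tropical 5D zebrafish embryos were exposed from 4 hpf in 96-well plates (1% DMSO, 28 °C). All compounds were first tested at 100 µM; hits were retested at 0.005-100 µM. Morphology and mortality were scored at 120 hpf and fitted as BMC10 (3-parameter log-logistic, extra risk). The embryonic photomotor response at 24 hpf and the larval photomotor response at 120 hpf are given as lowest effect levels (K-S test, p<0.01). NA = not significant up to 100 µM; NT = not tested.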
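Wherever Cell Health Index (toxicity pseudo-probability over dose series) is given: HL-60 cells exposed 4 h at 37 °C to ten threefold dilutions spanning 5 nM to 100 µM, multiparametric flow cytometry features scored by machine-learning classification.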

As for `CC(C)C1=C2[C@H]3CC[C@@H]4[C@@]5(C)CC[C@H](OC(=O)CC(C)(C)C(=O)O)C(C)(C)[C@@H]5CC[C@@]4(C)[C@]3(C)CC[C@@]2([C@@H](O)CN(CCN(C)C)Cc2ccc(Cl)cc2)CC1=O`, in the experiment with HL-60, the “Cell Health Index” value worked out at 0.422. For the same compound, the “BMC10 any morphological effect or mortality” value with Danio rerio embryo was over 100 µM.

Regarding `O=C(O)/C(S)=C/c1ccc(I)cc1`, the “Cell Health Index” value in the experiment on HL-60 worked out at 0.32. In addition, the “BMC10 any morphological effect or mortality” value with Danio rerio embryo is over 100 µM.

Turning to `N#C[C@@]1(c2ccc3c(N)ncnn23)O[C@H](CO)[C@@H](O)[C@H]1O`, the “Cell Health Index” value with HL-60 was found to be 0.185. The “BMC10 any morphological effect or mortality” value with Danio rerio embryo is over 100 µM.

In the case of `Nc1n[nH]c2nnc(-c3c(-c4ccccc4)nn4ccccc34)cc12`, in the experiment on HL-60, the “Cell Health Index” value is 0.299. Moreover, the “BMC10 any morphological effect or mortality” value in the experiment with Danio rerio embryo was over 100 µM.

On to `CCN(CC)Cc1ccc(C(=O)N(CCc2ccccc2OC)[C@@H]2CCNC2)cc1.Cl.Cl`, for which, in the experiment with HL-60, the “Cell Health Index” value stood at 0.318. The “BMC10 any morphological effect or mortality” value in the experiment with Danio rerio embryo was over 100 µM.

As for `Nc1ccc(C(=O)Nc2cccc(-c3nc(N4CCOCC4)c4oc5ncccc5c4n3)c2)cn1`, the “Cell Health Index” value in the experiment on HL-60 amounted to 0.615. The “BMC10 any morphological effect or mortality” value in the experiment with Danio rerio embryo is over 100 µM.

With `CCc1cccc(CC)c1NC(=O)N1Cc2[nH]nc(NC(=O)c3ccc(N4CCN(C)CC4)cc3)c2C1`, the “Cell Health Index” value in the experiment on HL-60 is 0.634. Further, in the experiment with Danio rerio embryo, the “BMC10 any morphological effect or mortality” value was over 100 µM.

Regarding `O=C(c1ccccc1)c1ccc2nc(NC(=O)c3csc(C4CCN(c5ncnc6ccsc56)CC4)n3)[nH]c2c1`, the “Cell Health Index” value with HL-60 stood at 0.507. For the same compound, in the experiment with Danio rerio embryo, the “BMC10 any morphological effect or mortality” value is over 100 µM.

Consider `Cc1nnnn1/N=C\c1ccc(O)c(C(c2ccc(O)cc2)c2cc(/C=N/n3nnnc3C)ccc2O)c1` (stereo unspecified), for which the “Cell Health Index” value in the experiment on HL-60 came out at 0.389. Moreover, the “BMC10 any morphological effect or mortality” value with Danio rerio embryo is over 100 µM.

In the case of `O.Oc1cc(O)c2c(c1)O[C@H](c1ccc(O)c(O)c1)[C@@H](O)C2` (racemic) [(±)-Catechin], in the experiment on HL-60, the “Cell Health Index” value was determined as 0.804. Besides, the “BMC10 any morphological effect or mortality” value in the experiment with Danio rerio embryo was over 100 µM.

Take `O=C(/C=C/c1ccc(O)c(O)c1)O[C@@H]1C[C@](OC(=O)/C=C/c2ccc(O)c(O)c2)(C(=O)O)C[C@@H](O)[C@H]1O` [1,5-Dicaffeoylquinic acid]: the “Cell Health Index” value in the experiment on HL-60 is 0.569. The “BMC10 any morphological effect or mortality” value in the experiment with Danio rerio embryo was over 100 µM.

With `C[C@@]1(O)[C@H](O)[C@@H](CO)O[C@H]1n1cnc2c(N)ncnc21` [2'-C-Methyladenosine], in the experiment on HL-60, the “Cell Health Index” value worked out at 0.266. Moreover, the “BMC10 any morphological effect or mortality” value in the experiment on Danio rerio embryo was over 100 µM.

Regarding `O=C(O)c1ccc2nc(-c3ccccc3)c(-c3ccccc3)nc2c1` [2,3-diphenylquinoxaline-6-carboxylic acid], the “Cell Health Index” value with HL-60 was determined as 0.217. For the same compound, the “BMC10 any morphological effect or mortality” value with Danio rerio embryo is over 100 µM.

Consider `OC[C@H]1OC(O)C[C@@H](O)[C@@H]1O` (stereo partly drawn) [2-deoxy-D-Glucose], for which the “Cell Health Index” value in the experiment on HL-60 amounted to 0.325. Further, in the experiment on Danio rerio embryo, the “BMC10 any morphological effect or mortality” value was over 100 µM.

As for `O=c1c(-c2ccc(O)c(O)c2)coc2cc(O)ccc12` [3',4',7-Trihydroxyisoflavone], in the experiment on HL-60, the “Cell Health Index” value stood at 0.478. The “BMC10 any morphological effect or mortality” value with Danio rerio embryo is over 100 µM.

Take `O=C(/C=C/c1ccc(O)c(O)c1)O[C@@H]1[C@H](O)C[C@@](O)(C(=O)O)C[C@H]1OC(=O)/C=C/c1ccc(O)c(O)c1` [3,4-Dicaffeoylquinic acid]: the “Cell Health Index” value in the experiment on HL-60 was 0.416. The “BMC10 any morphological effect or mortality” value in the experiment with Danio rerio embryo was over 100 µM.

`O=C(/C=C/c1ccc(O)c(O)c1)O[C@@H]1C[C@](O)(C(=O)O)C[C@@H](OC(=O)/C=C/c2ccc(O)c(O)c2)[C@H]1O` [3,5-Dicaffeoylquinic acid]: the “Cell Health Index” value with HL-60 stood at 0.614. In addition, the “BMC10 any morphological effect or mortality” value with Danio rerio embryo is over 100 µM.

As for `Nc1nccc2c1ncn2[C@@H]1O[C@H](CO)[C@@H](O)[C@H]1O` [3-Deazaadenosine], the “Cell Health Index” value in the experiment with HL-60 came out at 0.318. Further, in the experiment with Danio rerio embryo, the “BMC10 any morphological effect or mortality” value is over 100 µM.

`O=C(/C=C/c1ccc(O)c(O)c1)O[C@H]1[C@H](O)C[C@](O)(C(=O)O)C[C@H]1OC(=O)/C=C/c1ccc(O)c(O)c1` [4,5-Dicaffeoylquinic acid]: the “Cell Health Index” value with HL-60 was found to be 0.542. Moreover, the “BMC10 any morphological effect or mortality” value in the experiment on Danio rerio embryo is over 100 µM.

As for `C#Cc1cn([C@H]2C[C@H](O)[C@@H](CO)O2)c(=O)nc1N` [5'-Ethynyl-2'-deoxycytidine], in the experiment on HL-60, the “Cell Health Index” value amounted to 0.13. Besides, the “BMC10 any morphological effect or mortality” value in the experiment with Danio rerio embryo was over 100 µM.

On to `Cl.NCC(=O)CCC(=O)O` [5-Aminolevulinic acid], for which the “Cell Health Index” value in the experiment with HL-60 worked out at 0.194. Besides, the “BMC10 any morphological effect or mortality” value in the experiment with Danio rerio embryo is over 100 µM.

Take `O=C(/C=C/c1ccc(O)c(O)c1)O[C@@H]1C[C@@](O)(C(=O)O)C[C@@H](O)[C@@H]1O` [5-Caffeoylquinic acid]: in the experiment with HL-60, the “Cell Health Index” value was found to be 0.295. For the same compound, in the experiment on Danio rerio embryo, the “BMC10 any morphological effect or mortality” value is over 100 µM.

Regarding `O=c1[nH]cc(F)c(=O)[nH]1` [5-Fluorouracil], in the experiment on HL-60, the “Cell Health Index” value came out at 0.159. Also, in the experiment with Danio rerio embryo, the “BMC10 any morphological effect or mortality” value was over 100 µM.

Values taken from the supplement of paper PMC11821682.
